The values that follow are results of earlier work, collected in patent US20090221462A1, “Fragrance compositions” (priority 2005, published 2009).

A word on the pKa: it is the pH at which an ionisable group is half protonated.

For the data set the following is noted: at 25° C.

Structures are written as SMILES.

For the molecule `O=C(O)C=Cc1ccccc1` [cinnamic acid], the “pKa (cis)” value (cis isomer) is recorded as 3.89. For `O=C(O)Cc1ccccc1` [phenylacetic acid], the pKa was 4.28.
